Here are results for one compound from patent publication US9714265B2, “Mutagenic nucleoside analogs and uses thereof” (Massachusetts Institute of Technology, priority 2015, dated 2017).

One may read the pKa as the negative logarithm of the acid dissociation constant.

Data set [1] has as its system M13 single-stranded genomes, containing one KP1212 base at a specific site. Nature of the data set: primer extension at various pHs on M13 genome containing KP1212, PCR and REAP assay (mutagenesis). Type of data set: biochemical. The method, then: The method of evaluating the mutagenicity of a compound allows for analyzing the product of a primer extension reaction (by itself a trivial reaction, even if run at different pHs) with the REAP method (this method was published in Delaney, J. C. & Essigmann, J. M., Methods Enzymol. 408, 1-15 (2006)). The methods involve a custom primer, of the form 5′-B-A-3′ and the following protocol. The A sequence is the actual primer for the extension reaction, and by itself has a low (about 37° C.) melting temperature. […] Its melting temperature is high, at about 70° C. The template of the primer extension reaction is an M13 genome containing at a specific site a modified base (or nucleoside analog). After the primer extension reaction, a PCR reaction is run using two primers; primer 1 is the forward primer used in the REAP method (or a primer annealing on the M13 genome upstream of the lesion site); primer 2 is exactly the sequence B. This method guarantees that only the primer extension product will be PCR amplified, and amplification will not depend on the yield of the primer extension reaction. Therefore, this method allows to detect and analyze mutagenic consequences (including rare events) of nucleoside analogs in a variety of conditions, where the type of polymerase, pH, ionic strength, salt concentration, and inhibitors can be varied over a large range of possibilities.
The M13 single-stranded genomes, containing one KP1212 base at a specific site were constructed and purified as previously reported (Li, Fedeles, Singh, Peng et al, 2014, Tautomerism provides a molecular explanation for the mutagenic properties of the anti-HIV nucleoside 5-aza-5,6-dihydro-2′-deoxycytidine, Proc. Natl. Acad. Sci. U.S.A. 111, E3252-3259). […]
The PCR products were subsequently purified and analyzed with the REAP assay as previously described (Li, Fedeles, Singh, Peng et al, 2014, Tautomerism provides a molecular explanation for the mutagenic properties of the anti-HIV nucleoside 5-aza-5,6-dihydro-2′-deoxycytidine. Proc. Natl. Acad. Sci. U.S.A. 111, E3252-3259). […]

Data set [2] in a line: pH-dependent 1D FTIR / 2D IR spectroscopy of KP1212 in aqueous solutions (pKa). Type of data set: physicochemical. Conditions: aqueous (D2O) solutions, pH* varied from 1.6 to 13.9; 1D and/or 2D IR spectroscopy, 25° C. Here is the method:
FIGS. 1A to 1E. FIG. 1A: pH-dependent (Fourier transform infrared) FTIR spectra of KP1212 from pH* 1.6 (red or thin solid line) to 13.9 (blue or thick solid line) at 25° C. FIG. 1B: populations of protonated, neutral, and deprotonated KP1212 as a function of pH* obtained from the first three components of singular value decomposition (SVD) analysis. The solid lines show fits of the Henderson-Hasselbalch equation with pKa1 and pKa2. FIGS. 1C to 1E: SVD reconstructed IR spectra representative for the protonated (FIG. 1C), neutral (FIG. 1D), and deprotonated (FIG. 1E) KP1212. The grey curves, labeled A, in FIG. 1C and FIG. 1D are the experimental FTIR spectra of 1-(1′,4′-cyclohexadienyl)-2-methylaminopropane (CMP) at pH* 1.6 and 7.4, respectively. The pH* is the pH measured in D2O, as measured with a pH meter. The FTIR experiments were run in D2O.
An in vitro assay has been developed that allowed the measurement of the mutation type and rate of KP1212 at different pH values, and the mutagenic properties of KP1212 have been evaluated at pH 6-8. […] By simply changing the pH of a composition (e.g., a bodily fluid or aqueous solution) containing KP1212 to 5.9, KP1212 achieves its optimal mutagenicity of about 50%.
For both 1D FTIR and 2D IR experiments, the H/D exchanged KP1212 was dissolved at a concentration of 20 mg/ml (88 mM) in 0.5 M phosphate buffer pD (pH reading in D2O) 7.9. […]

In the next data set the test system is HIV. The conditions noted are these: Phase I and II; active form of the pro-drug KP1461; cited from earlier work.
Data set [3] concerns single-stranded vector containing a single KP1212. As to the kind of experiment: in vitro and in vivo replication of a single-stranded vector containing a single KP1212. From the text: Mutagenic nucleoside analogs may act through lethal mutagenesis. Lethal mutagenesis is a strategy whereby the innate immune system or mutagenic pool nucleotides increase the error rate of viral replication above the error catastrophe limit. Lethal mutagenesis can also increase the mutation rate of the DNA and/or RNA of cancer cells (e.g., cancer cells with a mutator phenotype) to over the error catastrophe limit and thus show genotoxicity and/or mitochondrial toxicity against the cancer cells. Lethal mutagenesis is proposed as a mechanism for several anti-viral compounds, including Ribavirin, which is useful for treating RS virus infection (RSV) and KP1212, a dihydro base which causes A to G and G to A mutations in HIV. […] The mutagenic properties of KP1212 were determined empirically by in vitro and in vivo replication of a single-stranded vector containing a single KP1212. […] A model is proposed that correlates the mutagenicity of KP1212 with its tautomeric distribution in solution. When incorporated into HIV DNA by RT, KP1212 allows DNA synthesis to continue. However, the modified base of KP1212 is able to tautomerize and base-pair alternately with guanine and adenine. […] Variable temperature (VT) nuclear magnetic resonance (NMR) techniques have allowed the identification of compounds capable of multiple tautomerism.

In the case of `NC1=NC(=O)N([C@H]2C[C@H](O)[C@@H](CO)O2)CN1` [KP1212, 5-aza-5,6-dihydro-2′-deoxycytidine], in data set [1] (at pH 5.9), the mutagenesis result is “about 50%”. Further, in data set [1] (at pH 8), the mutagenesis entry is recorded as “about 10%”. Further, the “C-to-T mutations in dependence on pH” value in data set [1] (pH 5.5-8.5) is recorded as “more C-to-T mutations as the pH decreases”. This compound also showed a pKa in data set [2] of about 7. Besides, the “safety in clinical trials” value with HIV is reported as “safe”. This compound displayed a mutagenicity in data set [3] of 10%. Also, in data set [3] (in vivo, when present in a template strand), the C-to-T mutations entry was “about 10%”. Also, in data set [3] (under physiological conditions), the “paired with adenine, share of the time” value is “about 10%” and the “paired with guanine, share of the time” value is “approximately 90%”.
